US20060040312A1 (priority 1999, published 2006)

How the values were obtained:
[1] = test system: primary cultures of cortex
cardiac myocytes = assay type: cell-based, rat
[2] = test system: histamine-contracted, isolated Guinea pig tracheal segments
[3] = test system: primary cultures of cortex; assay type: cell-based, rat
[4] = target: Shaker H4 potassium channel (Drosophila melanogaster, UniProt P08510); conditions: cited from earlier work
F425G Shaker mutation = F425G Shaker mutation (Drosophila melanogaster, UniProt P08510, F425G); conditions: cited from earlier work
[5] = test system: primary cortical cultures

Sequence of Shaker H4 potassium channel (P08510 whole entry): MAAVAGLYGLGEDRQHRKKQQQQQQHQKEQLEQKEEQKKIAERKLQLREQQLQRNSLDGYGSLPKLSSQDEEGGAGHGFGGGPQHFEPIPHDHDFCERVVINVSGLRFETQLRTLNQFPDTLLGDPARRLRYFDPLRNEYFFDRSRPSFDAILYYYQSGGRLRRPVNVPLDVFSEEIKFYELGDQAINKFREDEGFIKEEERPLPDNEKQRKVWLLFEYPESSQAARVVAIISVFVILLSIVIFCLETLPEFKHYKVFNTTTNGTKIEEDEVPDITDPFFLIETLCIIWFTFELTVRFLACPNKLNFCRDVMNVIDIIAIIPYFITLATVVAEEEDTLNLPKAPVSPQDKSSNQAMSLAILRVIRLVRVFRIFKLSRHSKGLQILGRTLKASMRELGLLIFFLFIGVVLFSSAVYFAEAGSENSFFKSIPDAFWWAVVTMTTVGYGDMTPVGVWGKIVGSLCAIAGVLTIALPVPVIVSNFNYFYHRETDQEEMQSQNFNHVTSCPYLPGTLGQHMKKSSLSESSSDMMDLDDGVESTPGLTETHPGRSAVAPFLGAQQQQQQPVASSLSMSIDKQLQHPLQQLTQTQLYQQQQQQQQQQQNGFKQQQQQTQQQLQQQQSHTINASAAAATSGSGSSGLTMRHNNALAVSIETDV
Sequence of F425G Shaker mutation (P08510 whole entry F425G): as the sequence (P08510 whole entry) above, with F425G counted along it

COc1ccc(Cl)cc1C(=O)NCCc1ccc(S(=O)(=O)NC(=O)NC2CCCCC2)cc1 [Glibenclamide]
effect of KATP antagonist on the κ-PVIIA induced hyperpolarization [1]: significant reductions
sensitivity of κ-PVIIA-evoked currents to KATP antagonist (cardiac myocytes): sensitive
effect of KATP channel antagonist on the κ-PVIIA response [2]: reduce effects of κ-PVIIA

Iberiotoxin (QFTDVDCSVSKECWSVCKDLFGVDRGKCMGKKCRCYQ; UniProt P24663 1-37, looked up) [IBTX]
effect of K+ channel antagonist on the hyperpolarization seen with 100 nM κ-PVIIA [1]: without any detectable effect

CCCCNC(=O)NS(=O)(=O)c1ccc(C)cc1 [Tolbutamide]
effect of KATP antagonist on κ-PVIIA protection against glutamate cytotoxicity (cortical cells): blocked
sensitivity of κ-PVIIA-evoked currents to KATP antagonist [3]: sensitive
effect of KATP antagonist on the κ-PVIIA induced hyperpolarization [1]: significant reductions
inhibition of the κ-PVIIA (100 nM) response [1]: inhibition
effect of KATP channel antagonist on the κ-PVIIA response [2]: reduce effects of κ-PVIIA

Nc1ccncc1 [4-AP, 4-aminopyridine]
effect of K+ channel antagonist on the hyperpolarization seen with 100 nM κ-PVIIA [1]: without any detectable effect

charybdotoxin [reference compound]
block / inhibition of the Shaker channel [4]: inhibit
effect of F425G Shaker mutation on toxin affinity / sensitivity (F425G Shaker mutation): increases charybdotoxin affinity by three orders of magnitude

Triton [reference compound]
increase in fluorescence (Enzchek protease-sensitive dye) [5]: ~14%
